Laboratory results from PubChem BioAssay (NCI).
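Dose response: 5 concentrations. Exposure: 48 h. Format: 96-well plates. Endpoint: linear interpolation; highest concentration if not reached. TGI denotes the concentration required for complete inhibition of growth.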 Where a SMILES comes first, the peptide text is derived from it. The star is where a group is joined. Boc = CC(C)(C)OC(=O)*

Experiments:
Test in all cases: DTP human tumour cell line panel, 48 h
IGROV1 ovarian = tested on: IGROV1 ovarian
HCT-15 colon = tested on: HCT-15 colon
SK-MEL-28 melanoma = tested on: SK-MEL-28 melanoma
LOX IMVI melanoma = tested on: LOX IMVI melanoma
MALME-3M melanoma = tested on: MALME-3M melanoma
DMS 273 small cell lung = tested on: DMS 273 small cell lung
HOP-92 NSCLC = tested on: HOP-92 NSCLC
NCI-H226 lung = tested on: NCI-H226 lung
SNB-19 CNS = tested on: SNB-19 CNS
COLO 205 colon = tested on: COLO 205 colon
CAKI-1 renal = tested on: CAKI-1 renal
RXF 393 renal = tested on: RXF 393 renal
EKVX NSCLC = tested on: EKVX NSCLC
U251 CNS = tested on: U251 CNS
TK-10 renal = tested on: TK-10 renal
HT29 colon = tested on: HT29 colon
UO-31 renal = tested on: UO-31 renal
M14 melanoma = tested on: M14 melanoma

`C/C=C1\CN2CCc3c([nH]c4ccccc34)C2CC1C(=O)OC` (stereo not given) showed a TGI (IGROV1 ovarian) of over 322 µM, a TGI (HCT-15 colon) of over 322 µM and a TGI (SK-MEL-28 melanoma) of over 322 µM. The TGI (LOX IMVI melanoma) was over 322 µM, the TGI (MALME-3M melanoma) was over 322 µM and the TGI (DMS 273 small cell lung) was over 322 µM. For the same compound, the TGI (HOP-92 NSCLC) was over 322 µM, the TGI (NCI-H226 lung) was over 322 µM and the TGI (SNB-19 CNS) was over 322 µM. The TGI (COLO 205 colon) was over 322 µM, the TGI (CAKI-1 renal) was over 322 µM and the TGI (RXF 393 renal) was over 322 µM. It also gave a TGI (EKVX NSCLC) of over 322 µM, a TGI (U251 CNS) of over 322 µM and a TGI (TK-10 renal) of over 322 µM. The TGI (HT29 colon) was over 322 µM.
In the case of `O=C(O)c1ccc(C2COc3ccc(Cl)cc3C2)cc1` (stereo not given), the TGI (IGROV1 ovarian) is reported as over 100 µM, the TGI (HCT-15 colon) is reported as over 100 µM and the TGI (SK-MEL-28 melanoma) is reported as over 100 µM. For the same compound, the TGI (LOX IMVI melanoma) was over 100 µM, the TGI (MALME-3M melanoma) was over 100 µM and the TGI (DMS 273 small cell lung) was over 100 µM. The TGI (HOP-92 NSCLC) was over 100 µM, the TGI (NCI-H226 lung) was over 100 µM and the TGI (UO-31 renal) was over 100 µM. The TGI (M14 melanoma) was over 100 µM, the TGI (SNB-19 CNS) was over 100 µM and the TGI (COLO 205 colon) was over 100 µM. It also gave a TGI (CAKI-1 renal) of over 100 µM, a TGI (RXF 393 renal) of over 100 µM and a TGI (EKVX NSCLC) of over 100 µM. The TGI (U251 CNS) was over 100 µM, the TGI (TK-10 renal) was over 100 µM and the TGI (HT29 colon) was over 100 µM.
In the case of `O=c1[nH]cc(COCCCO)c(=O)[nH]1`, the TGI (IGROV1 ovarian) is reported as over 100 µM, the TGI (HCT-15 colon) is reported as over 100 µM and the TGI (SK-MEL-28 melanoma) is reported as over 100 µM. It also gave a TGI (LOX IMVI melanoma) of over 100 µM, a TGI (MALME-3M melanoma) of over 100 µM and a TGI (DMS 273 small cell lung) of over 100 µM. The TGI (HOP-92 NSCLC) was over 100 µM, the TGI (NCI-H226 lung) was over 100 µM and the TGI (UO-31 renal) was over 100 µM. It also gave a TGI (M14 melanoma) of over 100 µM, a TGI (SNB-19 CNS) of over 100 µM and a TGI (COLO 205 colon) of over 100 µM. For the same compound, the TGI (CAKI-1 renal) was over 100 µM, the TGI (RXF 393 renal) was over 100 µM and the TGI (EKVX NSCLC) was over 100 µM. For the same compound, the TGI (U251 CNS) was over 100 µM, the TGI (TK-10 renal) was over 100 µM and the TGI (HT29 colon) was over 100 µM.
`O=c1nc(NC2CCCCO2)ccn1CCO` (stereo not given) gave a TGI (IGROV1 ovarian) of over 100 µM, a TGI (HCT-15 colon) of over 100 µM and a TGI (SK-MEL-28 melanoma) of over 100 µM. The TGI (LOX IMVI melanoma) was over 100 µM, the TGI (MALME-3M melanoma) was over 100 µM and the TGI (DMS 273 small cell lung) was over 100 µM. It also gave a TGI (HOP-92 NSCLC) of over 100 µM, a TGI (NCI-H226 lung) of over 100 µM and a TGI (UO-31 renal) of over 100 µM. It also gave a TGI (M14 melanoma) of over 100 µM, a TGI (COLO 205 colon) of over 100 µM and a TGI (CAKI-1 renal) of over 100 µM. It also gave a TGI (RXF 393 renal) of over 100 µM, a TGI (EKVX NSCLC) of over 100 µM and a TGI (U251 CNS) of over 100 µM. For the same compound, the TGI (TK-10 renal) was over 100 µM and the TGI (HT29 colon) was over 100 µM.
`CC(C)(C)OC(=O)NC(Cc1ccc(O)cc1)C(=O)N1CCCC1C(=O)O` (stereo not drawn) (Boc-Tyr-Pro-OH; configuration not given here) was tested, and the TGI (IGROV1 ovarian) was over 100 µM, the TGI (HCT-15 colon) was over 100 µM and the TGI (SK-MEL-28 melanoma) was over 100 µM. The TGI (LOX IMVI melanoma) was over 100 µM, the TGI (MALME-3M melanoma) was over 100 µM and the TGI (DMS 273 small cell lung) was over 100 µM. It also gave a TGI (HOP-92 NSCLC) of over 100 µM, a TGI (NCI-H226 lung) of over 100 µM and a TGI (UO-31 renal) of over 100 µM. For the same compound, the TGI (M14 melanoma) was over 100 µM, the TGI (SNB-19 CNS) was over 100 µM and the TGI (COLO 205 colon) was over 100 µM. The TGI (CAKI-1 renal) was over 100 µM, the TGI (RXF 393 renal) was over 100 µM and the TGI (EKVX NSCLC) was over 100 µM. The TGI (U251 CNS) was over 100 µM, the TGI (TK-10 renal) was over 100 µM and the TGI (HT29 colon) was over 100 µM.
In the case of `COC(=O)c1onc(-c2c(OC)cc(OC)cc2OC)c1C(=O)OC`, the TGI (IGROV1 ovarian) is reported as over 100 µM, the TGI (HCT-15 colon) is reported as over 100 µM and the TGI (SK-MEL-28 melanoma) is reported as over 100 µM. The TGI (LOX IMVI melanoma) was over 100 µM, the TGI (MALME-3M melanoma) was over 100 µM and the TGI (DMS 273 small cell lung) was over 100 µM. The TGI (HOP-92 NSCLC) was over 100 µM, the TGI (NCI-H226 lung) was over 100 µM and the TGI (UO-31 renal) was over 100 µM. For the same compound, the TGI (M14 melanoma) was over 100 µM, the TGI (SNB-19 CNS) was over 100 µM and the TGI (COLO 205 colon) was over 100 µM. The TGI (CAKI-1 renal) was over 100 µM, the TGI (RXF 393 renal) was over 100 µM and the TGI (EKVX NSCLC) was over 100 µM. For the same compound, the TGI (U251 CNS) was over 100 µM, the TGI (TK-10 renal) was over 100 µM and the TGI (HT29 colon) was over 100 µM.
